Assay results from patent US9238074B2, “Crystalline forms of the di-sodium salt of N-(5-chlorosalicyloyl)-8-aminocaprylic acid” (Emisphere Technologies, Inc., priority 2005, dated 2016).

Test: Stability of crystalline forms of 5-CNAC (room temperature, humidity, storage)

form conversion on storage (storage of the mixture of Forms I and IV (Example 5) over time) | Structure (SMILES) | stability as a function of relative humidity (relative humidity below about 50%)
– | O=C([O-])CCCCCCCNC(=O)c1cc(Cl)ccc1[O-].[Na+].[Na+] [Form III, di-sodium salt of N-(5-chlorosalicyloyl)-8-aminocaprylic acid] | unstable at a relative humidity below about 50%
convert to Form I over time on storage | O=C([O-])CCCCCCCNC(=O)c1cc(Cl)ccc1[O-].[Na+].[Na+] [Form IV, di-sodium salt of N-(5-chlorosalicyloyl)-8-aminocaprylic acid] | –
